Assay results: the supplement of paper PMC9663587

Columns and labels:
[1] = compound: CCCCOc1c(C(=O)c2c(F)cc(C)cc2F)c[nH]c2nncc1-2
[2] = compound: CCNC(=O)c1noc(-c2cc(C(C)C)c(O)cc2O)c1-c1ccc(CN2CCOCC2)cc1 [Luminespib/NVP-AUY922]
[3] = compound: CN(C)C/C=C/C(=O)NC1=CC=C(C=C1)C(=O)NC2=CC=CC(=C2)NC3=NC=NC(=C3)C4=CNC5=CC=CC=C54 [THZ-P1-2]
[4] = compound: CN(C)C/C=C/C(=O)Nc1ccc(O[C@@H]2CCC[C@@H](Nc3ncc(Cl)c(-c4c[nH]c5ccccc45)n3)C2)cc1 [BSJ-01-175]
[5] = compound: CN1CCN(CCOc2cc(OC3CCOCC3)c3c(Nc4c(Cl)ccc5c4OCO5)ncnc3c2)CC1 [Saracatinib/AZD0530]
[6] = compound: Cc1cc(Nc2ncc(Cl)c(Nc3ccccc3S(=O)(=O)C(C)C)n2)c(OC(C)C)cc1C1CCNCC1 [Ceritinib/LDK378]
[7] = compound: C=CC(=O)Nc1ccc(C(=O)Nc2[nH]nc3c2CN(C(=O)N[C@H](CN(C)C)c2ccccc2)C3(C)C)cc1 [YKL-5-124]; assay: increase in dead-cell fraction, 72 h; higher = more death;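 further: breast cancer cell lines in 384-well plates, stained with Hoechst plus LIVE/DEAD far red dye and imaged, cells above an LDR intensity threshold counted dead, Hoechst-negative corpses included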
[8] = compound: CC(=O)c1c(C)c2cnc(Nc3ccc(N4CCN(CCOCCOCCOCCNC(=O)COc5cccc6c5C(=O)N(C5CCC(=O)NC5=O)C6=O)CC4)cn3)nc2n(C2CCCC2)c1=O [BSJ-03-123]; assay: as above
[9] = compound: CC(=O)c1c(C)c2cnc(Nc3ccc(N4CCNCC4)cn3)nc2n(C2CCCC2)c1=O; assay: as above
[10] = compound: CCN1CCN(Cc2ccc(Nc3ncc(F)c(-c4cc(F)c5nc(C)n(C(C)C)c5c4)n3)nc2)CC1; assay: as above
[11] = compound: CCOc1cc2ncc(C#N)c(Nc3ccc(OCc4ccccn4)c(Cl)c3)c2cc1NC(=O)/C=C/CN(C)C [Neratinib/HKI272]; assay: as above
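Wherever GR50, 72 h is given: breast cancer and non-malignant breast epithelial cell lines, Deep Dye Drop or Dye Drop imaging, nine half-log doses, GR normalized to time-zero plates and DMSO-only controls.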

HS578T
GR50, 72 h [1]: 0.0165 µM
GR50, 72 h [2]: 0.0033 µM
GR50, 72 h [3]: > 10 µM
GR50, 72 h [4]: 0.0056 µM
GR50, 72 h [5]: 4.04 µM
GR50, 72 h [6]: 0.965 µM
increase in dead-cell fraction ([7]; 0.001 µM): 0.0377
increase in dead-cell fraction ([7]; 0.003162 µM): 0.0487
increase in dead-cell fraction ([7]; 0.01 µM): 0.0429
increase in dead-cell fraction ([7]; 0.03162 µM): 0.127
increase in dead-cell fraction ([7]; 0.1 µM): 0.139
increase in dead-cell fraction ([7]; 0.3162 µM): 0.155
increase in dead-cell fraction ([7]; 1 µM): 0.13
increase in dead-cell fraction ([7]; 3.162 µM): 0.125
increase in dead-cell fraction ([7]; 10 µM): 0.492
increase in dead-cell fraction ([8]; 0.001 µM): 0.0192
increase in dead-cell fraction ([8]; 0.003162 µM): 0.0459
increase in dead-cell fraction ([8]; 0.01 µM): 0.0053
increase in dead-cell fraction ([8]; 0.03162 µM): 0.0194
increase in dead-cell fraction ([8]; 0.1 µM): 0.0184
increase in dead-cell fraction ([8]; 0.3162 µM): 0.0238
increase in dead-cell fraction ([8]; 1 µM): 0.034
increase in dead-cell fraction ([8]; 3.162 µM): 0.0445
increase in dead-cell fraction ([8]; 10 µM): 0.267
increase in dead-cell fraction ([9]; 0.0003162 µM): -0.0068
increase in dead-cell fraction ([9]; 0.001 µM): 0.0083
increase in dead-cell fraction ([9]; 0.003162 µM): 0.0012
increase in dead-cell fraction ([9]; 0.01 µM): 0.0138
increase in dead-cell fraction ([9]; 0.03162 µM): 0.0151
increase in dead-cell fraction ([9]; 0.1 µM): 0.0427
increase in dead-cell fraction ([9]; 0.3162 µM): 0.052
increase in dead-cell fraction ([9]; 1 µM): 0.0736
increase in dead-cell fraction ([9]; 3.162 µM): 0.116
increase in dead-cell fraction ([10]; 0.001 µM): 0.0038
increase in dead-cell fraction ([10]; 0.003162 µM): 0.0096
increase in dead-cell fraction ([10]; 0.01 µM): 0.0242
increase in dead-cell fraction ([10]; 0.03162 µM): 0.0401
increase in dead-cell fraction ([10]; 0.1 µM): 0.0754
increase in dead-cell fraction ([10]; 0.3162 µM): 0.0958
increase in dead-cell fraction ([10]; 1 µM): 0.171
increase in dead-cell fraction ([10]; 3.162 µM): 0.511
increase in dead-cell fraction ([10]; 10 µM): 0.844
increase in dead-cell fraction ([11]; 0.0003162 µM): 0.0023
increase in dead-cell fraction ([11]; 0.001 µM): 0.0036
increase in dead-cell fraction ([11]; 0.003162 µM): 0.0026
increase in dead-cell fraction ([11]; 0.01 µM): 0.0046
increase in dead-cell fraction ([11]; 0.03162 µM): 0.0039
increase in dead-cell fraction ([11]; 0.1 µM): 0.0039
